For 7 cell lines, relative viability results are on record in the supplement of paper PMC10307832.

Assay in all cases: relative viability (nuclei count vs DMSO), 5 days (fraction); higher = more cells survive
Compound in experiment [1]: CN(NC(=O)CC(=O)NN(C)C(=S)c1ccccc1)C(=S)c1ccccc1 [Elesclomol] + Cc1cc(Nc2cc(N3CCN(C)CC3)nc(Sc3ccc(NC(=O)C4CC4)cc3)n2)n[nH]1 [Tozasertib] (partner 0.1 µM)
In short, it runs like this: (§1)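 Lung cancer cell lines were pin-tool dosed in 1536-well plates on the day after seeding, with either a lone drug or a fixed anchor-drug dose plus five library-drug doses (not always all listed) in √10 steps. Nuclei were counted on 4× images after 5 days. Relative viability is the ratio of treated-well to vehicle-well nuclei counts, with each value a median of duplicate plates.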

Compound in experiment [2]: CN(NC(=O)CC(=O)NN(C)C(=S)c1ccccc1)C(=S)c1ccccc1 [Elesclomol] + COc1cc2c(Oc3ccc(NC(=O)C4(C(=O)Nc5ccc(F)cc5)CC4)cc3F)ccnc2cc1OCCCN1CCOCC1 [Foretinib] (partner 0.25 µM)
The method in brief: as §1

Compound in experiment [3]: CN(NC(=O)CC(=O)NN(C)C(=S)c1ccccc1)C(=S)c1ccccc1 [Elesclomol] + Nc1nc2[nH]cc(CCc3ccc(C(=O)N[C@@H](CCC(=O)O)C(=O)O)cc3)c2c(=O)[nH]1 [Pemetrexed] (partner 0.2 µM)
In short, it runs like this:
as §1

Compound in experiment [4]: CN(NC(=O)CC(=O)NN(C)C(=S)c1ccccc1)C(=S)c1ccccc1 [Elesclomol] + CC1(C)CCC(c2ccc(Cl)cc2)=C(CN2CCN(c3ccc(C(=O)NS(=O)(=O)c4ccc(N[C@H](CCN5CCOCC5)CSc5ccccc5)c(S(=O)(=O)C(F)(F)F)c4)cc3)CC2)C1 [Navitoclax] (partner 0.5 µM)
The method in brief: as §1

Compound in experiment [5]: CN(NC(=O)CC(=O)NN(C)C(=S)c1ccccc1)C(=S)c1ccccc1 [Elesclomol] + COc1cccc2cc(-c3nc([C@H]4CC[C@H](C(=O)O)CC4)n4ncnc(N)c34)[nH]c12 [OSI-027] (partner 0.5 µM)
In short, it runs like this:
as §1

For the cell line PC-3 [JPC-3], the relative viability in experiment [1] (first compound 0.003162 µM) is 0.913; in experiment [1] (first compound 0.01 µM), 0.783; in experiment [1] (first compound 0.03162 µM), 0.941; in experiment [1] (first compound 0.1 µM), 0.569; in experiment [2] (first compound 0.003162 µM), 0.996; in experiment [2] (first compound 0.01 µM), 1.02. The relative viability is 1.17 in experiment [2] (first compound 0.03162 µM); 0.559 in experiment [2] (first compound 0.1 µM); 1.04 in experiment [3] (first compound 0.003162 µM); 0.714 in experiment [3] (first compound 0.01 µM); 0.518 in experiment [3] (first compound 0.03162 µM); 0.499 in experiment [3] (first compound 0.1 µM). The relative viability was 0.866 in experiment [4] (first compound 0.003162 µM); 0.682 in experiment [4] (first compound 0.01 µM); 0.794 in experiment [4] (first compound 0.03162 µM); 0.7 in experiment [4] (first compound 0.1 µM); 0.734 in experiment [5] (first compound 0.003162 µM); 0.662 in experiment [5] (first compound 0.01 µM). Besides, the values for the relative viability in experiment [5] (first compound 0.03162 µM) and in experiment [5] (first compound 0.1 µM) were 0.781 and 0.428, respectively.
PC-14: the relative viability in experiment [1] (first compound 0.003162 µM) was found to be 0.502; in experiment [1] (first compound 0.01 µM), 0.0652; in experiment [1] (first compound 0.03162 µM), 0.0256; in experiment [1] (first compound 0.1 µM) it was 0.0175; in experiment [2] (first compound 0.003162 µM) it was 1.02; in experiment [2] (first compound 0.01 µM), 0.827. Further, the relative viability in experiment [2] (first compound 0.03162 µM) is 0.484; in experiment [2] (first compound 0.1 µM), 0.0715; in experiment [3] (first compound 0.003162 µM) it was 0.14; in experiment [3] (first compound 0.01 µM) it was 0.0457; in experiment [3] (first compound 0.03162 µM), 0.0214; in experiment [3] (first compound 0.1 µM), 0.0198. Moreover, the relative viability amounted to 0.977 in experiment [4] (first compound 0.003162 µM); 0.719 in experiment [4] (first compound 0.01 µM); 0.0635 in experiment [4] (first compound 0.03162 µM); 0.0562 in experiment [4] (first compound 0.1 µM); 0.19 in experiment [5] (first compound 0.003162 µM); 0.0399 in experiment [5] (first compound 0.01 µM). In addition, the relative viability in experiment [5] (first compound 0.03162 µM) was found to be 0.0104; in experiment [5] (first compound 0.1 µM) it was 0.0138.
Turning to RERF-LC-KJ, the relative viability in experiment [1] (first compound 0.003162 µM) was 0.264; in experiment [1] (first compound 0.01 µM), 0.239; in experiment [1] (first compound 0.03162 µM) it was 0.208; in experiment [1] (first compound 0.1 µM), 0.116; in experiment [2] (first compound 0.003162 µM) it was 0.858; in experiment [2] (first compound 0.01 µM), 0.812. The relative viability in experiment [2] (first compound 0.03162 µM) was found to be 0.522; in experiment [2] (first compound 0.1 µM), 0.323; in experiment [3] (first compound 0.003162 µM), 0.412; in experiment [3] (first compound 0.01 µM), 0.369; in experiment [3] (first compound 0.03162 µM), 0.332; in experiment [3] (first compound 0.1 µM), 0.268. In addition, the relative viability in experiment [4] (first compound 0.003162 µM) came to 0.47; in experiment [4] (first compound 0.01 µM) it was 0.288; in experiment [4] (first compound 0.03162 µM) it was 0.293; in experiment [4] (first compound 0.1 µM), 0.191; in experiment [5] (first compound 0.003162 µM), 0.406; in experiment [5] (first compound 0.01 µM), 0.372. The results for the relative viability in experiment [5] (first compound 0.03162 µM) and in experiment [5] (first compound 0.1 µM) were 0.242 and 0.188, respectively.
In the case of SK-LU-1, the relative viability in experiment [1] (first compound 0.003162 µM) came out at 0.336; in experiment [1] (first compound 0.01 µM) it was 0.271; in experiment [1] (first compound 0.03162 µM), 0.238; in experiment [1] (first compound 0.1 µM), 0.15; in experiment [2] (first compound 0.003162 µM), 0.803; in experiment [2] (first compound 0.01 µM), 0.668. Moreover, the relative viability in experiment [2] (first compound 0.03162 µM) stood at 0.459; in experiment [2] (first compound 0.1 µM), 0.193; in experiment [3] (first compound 0.003162 µM), 1.01; in experiment [3] (first compound 0.01 µM) it was 0.889; in experiment [3] (first compound 0.03162 µM) it was 0.625; in experiment [3] (first compound 0.1 µM), 0.521. For the same cell line, the relative viability in experiment [4] (first compound 0.003162 µM) turned out to be 1.08; in experiment [4] (first compound 0.01 µM), 0.704; in experiment [4] (first compound 0.03162 µM), 0.167; in experiment [4] (first compound 0.1 µM), 0.172; in experiment [5] (first compound 0.003162 µM), 0.319; in experiment [5] (first compound 0.01 µM), 0.271. For the same cell line, the relative viability in experiment [5] (first compound 0.03162 µM) worked out at 0.211; in experiment [5] (first compound 0.1 µM) it was 0.0858.
As for SK-MES-1, the relative viability was found to be 0.842 in experiment [1] (first compound 0.003162 µM); 0.791 in experiment [1] (first compound 0.01 µM); 0.318 in experiment [1] (first compound 0.03162 µM); 0.479 in experiment [1] (first compound 0.1 µM); 0.87 in experiment [2] (first compound 0.003162 µM); 0.502 in experiment [2] (first compound 0.01 µM). Moreover, the relative viability came to 0.859 in experiment [2] (first compound 0.03162 µM); 0.854 in experiment [2] (first compound 0.1 µM); 0.982 in experiment [3] (first compound 0.003162 µM); 0.597 in experiment [3] (first compound 0.01 µM); 0.524 in experiment [3] (first compound 0.03162 µM); 0.415 in experiment [3] (first compound 0.1 µM). Further, the relative viability came to 1.28 in experiment [4] (first compound 0.003162 µM); 0.97 in experiment [4] (first compound 0.01 µM); 1.03 in experiment [4] (first compound 0.03162 µM); 0.385 in experiment [4] (first compound 0.1 µM); 0.695 in experiment [5] (first compound 0.003162 µM); 0.196 in experiment [5] (first compound 0.01 µM). Moreover, the relative viability in experiment [5] (first compound 0.03162 µM) amounted to 0.266; in experiment [5] (first compound 0.1 µM), 0.395.
As for SW 1573, the relative viability was determined as 0.133 in experiment [1] (first compound 0.003162 µM); 0.119 in experiment [1] (first compound 0.01 µM); 0.0792 in experiment [1] (first compound 0.03162 µM); 0.0199 in experiment [1] (first compound 0.1 µM); 0.769 in experiment [2] (first compound 0.003162 µM); 0.65 in experiment [2] (first compound 0.01 µM). Further, the relative viability in experiment [2] (first compound 0.03162 µM) was 0.165; in experiment [2] (first compound 0.1 µM) it was 0.0891; in experiment [3] (first compound 0.003162 µM), 0.464; in experiment [3] (first compound 0.01 µM), 0.158; in experiment [3] (first compound 0.03162 µM), 0.115; in experiment [3] (first compound 0.1 µM) it was 0.0205. The relative viability amounted to 0.918 in experiment [4] (first compound 0.003162 µM); 0.102 in experiment [4] (first compound 0.01 µM); 0.0652 in experiment [4] (first compound 0.03162 µM); 0.0513 in experiment [4] (first compound 0.1 µM); 0.167 in experiment [5] (first compound 0.003162 µM); 0.107 in experiment [5] (first compound 0.01 µM). The figures for the relative viability in experiment [5] (first compound 0.03162 µM) and in experiment [5] (first compound 0.1 µM) were 0.0847 and 0.0105, respectively.
With UMC-11, the relative viability in experiment [1] (first compound 0.003162 µM) turned out to be 0.205; in experiment [1] (first compound 0.01 µM), 0.199; in experiment [1] (first compound 0.03162 µM), 0.185; in experiment [1] (first compound 0.1 µM), 0.168; in experiment [2] (first compound 0.003162 µM), 1.01; in experiment [2] (first compound 0.01 µM), 0.91. The relative viability was 0.789 in experiment [2] (first compound 0.03162 µM); 0.482 in experiment [2] (first compound 0.1 µM); 0.806 in experiment [3] (first compound 0.003162 µM); 0.655 in experiment [3] (first compound 0.01 µM); 0.478 in experiment [3] (first compound 0.03162 µM); 0.336 in experiment [3] (first compound 0.1 µM). For the same cell line, the relative viability in experiment [4] (first compound 0.003162 µM) came to 0.277; in experiment [4] (first compound 0.01 µM), 0.311; in experiment [4] (first compound 0.03162 µM) it was 0.22; in experiment [4] (first compound 0.1 µM) it was 0.143; in experiment [5] (first compound 0.003162 µM), 0.482; in experiment [5] (first compound 0.01 µM), 0.428. For the same cell line, the relative viability in experiment [5] (first compound 0.03162 µM) was 0.396; in experiment [5] (first compound 0.1 µM) it was 0.336.
